# Laboratory results: patent US5693628A, “11-benzaldoxime-estra-diene derivatives, methods for their production and pharmaceuticals containing these compounds” (priority 1994, dated 1997)
# Tests used:
# glucocorticoid receptor = target: T1, glucocorticoid receptor (Rattus norvegicus, UniProt P06536); assay: relative molar bonding affinity to glucocorticoid receptor (competitive bonding); format: binding; conditions: dexamethasone = 100%; thymus cytosol of adrenalectomized rat; 3H-dexamethasone, 20 nM; 18 h, 0-4° C.
# T1 construct: thymus cytosol of the adrenalectomized rat; from tissue; host or cells: thymus (cytosol) of adrenalectomized rat
# T1 sequence (P06536 1-795): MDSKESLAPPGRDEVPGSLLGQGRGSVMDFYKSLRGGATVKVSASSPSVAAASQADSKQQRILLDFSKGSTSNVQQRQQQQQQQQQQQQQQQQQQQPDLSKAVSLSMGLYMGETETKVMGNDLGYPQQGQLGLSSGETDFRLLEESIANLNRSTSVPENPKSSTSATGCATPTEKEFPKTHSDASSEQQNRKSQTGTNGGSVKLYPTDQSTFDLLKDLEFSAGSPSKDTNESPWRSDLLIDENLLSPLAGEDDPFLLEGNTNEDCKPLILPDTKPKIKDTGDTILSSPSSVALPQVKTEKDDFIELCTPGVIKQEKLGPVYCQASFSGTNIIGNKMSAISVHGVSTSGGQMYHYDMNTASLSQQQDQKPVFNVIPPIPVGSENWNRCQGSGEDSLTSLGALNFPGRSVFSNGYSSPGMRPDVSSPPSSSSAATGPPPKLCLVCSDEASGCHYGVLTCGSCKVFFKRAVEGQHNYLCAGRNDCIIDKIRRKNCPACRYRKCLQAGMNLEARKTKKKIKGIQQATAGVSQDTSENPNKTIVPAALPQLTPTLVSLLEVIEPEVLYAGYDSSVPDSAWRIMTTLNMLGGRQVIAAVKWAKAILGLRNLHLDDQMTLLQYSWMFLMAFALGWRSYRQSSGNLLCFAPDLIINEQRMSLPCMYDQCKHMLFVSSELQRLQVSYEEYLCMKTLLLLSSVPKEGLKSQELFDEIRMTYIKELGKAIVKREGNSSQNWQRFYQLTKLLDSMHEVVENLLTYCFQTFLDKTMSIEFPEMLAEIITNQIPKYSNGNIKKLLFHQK
# Experimental: Measurement of bonding affinity for receptors
# Receptor bonding affinity was determined by competitive bonding of a specifically binding ^3 H labelled hormone (tracer) and the compound to be tested to receptors in the cytosol from animal target organs. It was tried to obtain receptor saturation and a balanced reaction. The following incubation conditions were selected:
# Glucocorticoid receptor: thymus cytosol of the adrenalectomized rat, thymi kept at -30° C., buffer: TED. Tracer: ^3 H-dexamethasone, 20 nM; reference substance: dexamethasone.
# After an incubation period of 18 hours at 0°-4° C., bonded and free steroid was separated by mixing in active carbon/dextrane (1%/0.1%), centrifuging off and measuring the bonded ^3 H activity in the supernatant.
# The IC50 for the compound to be tested and for the reference substance were determined from measurements in series of concentrations.
# [1] = test system: ZR75/AGP-763 human mammary cell line (CAT induction); assay: Antiglucocorticoid effect: inhibition of dexamethasone-induced CAT in ZR75/AGP-763 cells; format: cell-based; conditions: ZR 75/AGP-763; 10^-7 M dexamethasone; wide range of concentrations
# Description: (§1) FIG. 2. is a graph showing the antiglucocorticoid effect of J 867 (Example 1) in comparison to RU 486. The graph depicts the inhibition of CAT induction in a human mammary cell line (the ZR75/AGP-763 cell line) which were induced by 10^-7 M dexamethasone. The graph indicates the log molar antagonist concentration in the x-axis versus the maximum CAT induction as a percentage in the y-axis. The results for dexamethasone is shown as dashed lines (- - -), the IC50 is shown in solid line (----), RU 486 is shown as open boxes (.quadrature.), and J 867 is shown with closed boxes (.box-solid.).
# FIG. 2 depicts the antiglucocorticoid effect produced by J 867 in the ZR 75/AGP-763 line of human mammary cells compared with that of RU 486.
# In this cell line, dexamthasone induces the chloroamphenicol acetyl transferase gene (CAT). This induction is inhibited by antiglucocorticoid substances.
# Antiglucocorticoid effect of J867 in the ZR75/AGP-763 line of human mammary cells
# The cell culture experiments were carried out in RPMI 1640 added with 10% foetal calf serum (FCS) using an incubator cabinet containing 95% air and 5% CO2 at 37° C. The cells were spread in 60 mm Petri dishes. […] CAT was determined using a Boehringer ELISA according to the instructions for quantitative CAT determination of transfected cells.
# [2] = test system: early gravidity in the rat; assay: Early abortive effect / inhibition of early gravidity in the rat; format: in vivo; conditions: for complete gravidity inhibition % / complete gravidity inhibition N*/N (females not pregnant/inseminated females): empty uteri
# Experimental: Inhibition of early gravidity in the rat
# Female rats are mated in the pro-oestrus. If semen is found in the vaginal smear on the next day, this day is counted as day 1 (=d1) of the gravidity. Treatment with the test substance or vehicle is applied on d5-d7, autopsy is carried out on d9. The substances are injected subcutaneously in 0.2 ml of vehicle (benzyl benzoate/castor oil 1+4).
# [3] = test system: H4-IIE rat hepatoma cell line (TAT induction); assay: Antiglucocorticoid effect: inhibition of dexamethasone-induced TAT in rat hepatoma cells; format: cell-based; conditions: hepatomatous cells of rats; 10^-8 M dexamethasone
# Description: as §1, with “3.” for “2.”, “TAT” for “CAT”, “rat hepatoma” for “human mammary”, “H4-IIE” for “ZR75/AGP-763”, “10^-8” for “10^-7”
# FIG. 3 compares the antiglucocorticoid effect of J 867 and RU 486 on hepatomatous cells of rats using the TAT model.
# In hepatomatous cells of rats, dexamethasone stimulates the tyrosine amino transferase enzyme (TAT). This effect is inhibited by antiglucocorticoid activity.
# Antiglucocorticoid effect of J867 in hepatomatous cells of rats using the TAT model
# The cell cultures were treated in DMEM under essentially the same conditions as in Example 14. The cells were spread over 24 well plates for the experiments. Substance was added to the confluent hepatomatous cells in 0.2% (v/v) ethanol for 16 hours. After the cells were carefully harvested using a scraper and a cell extract obtained using ultrasonic waves, TAT was determined according to Diamondstone.
# [4] = 0.3 mg/animal/day s.c., 5th to 7th day of pregnancy
# [5] = 1.0 mg/animal/day s.c., 5th to 7th day of pregnancy
# [6] = 3.0 mg/animal/day s.c., 5th to 7th day of pregnancy
compound,measurement,setting,value
"COC[C@]1(OC)CC[C@H]2[C@@H]3CCC4=CC(=O)CCC4=C3[C@@H](c3ccc(C=NO)cc3)C[C@@]21C [Example 1, 11β-[4-(hydroximinomethyl)phenyl]-17β-methoxy-17α-methoxymethyl-estra-4,9-diene-3-on]",relative molar bonding affinity (RBA) to glucocorticoid receptor,glucocorticoid receptor,78%
same,inhibition of CAT compared with RU 486,[1],inhibits CAT over a wide range of concentrations to a lesser extent than RU 486
same,complete gravidity inhibition %,[2]; [4],0%
same,complete gravidity inhibition N*/N (females not pregnant/inseminated females),[2]; [4],0/5
same,complete gravidity inhibition %,[2]; [5],100%
same,complete gravidity inhibition N*/N (females not pregnant/inseminated females),[2]; [5],5/5
same,complete gravidity inhibition %,[2]; [6],100%
same,complete gravidity inhibition N*/N (females not pregnant/inseminated females),[2]; [6],5/5
same,ED 50,"[2]; s.c., 5th to 7th day of pregnancy, graphic determination",0.6 mg/animal/day
same,inhibition capability of nidation as compared to RU 486 (factor),"[2]; s.c., d5-d7, autopsy d9, factor compared to RU 486",3
same,antiglucocorticoid effect (TAT) compared with RU 486,[3],clearly weaker antiglucocorticoid effect than RU 486
